Results from PubChem BioAssay (NCI).
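Test compounds were applied to cells in 96-well plates for 48 hours at 5 doses. At the GI50, growth is halved. TGI: concentration producing complete growth inhibition.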

Experiments:
Assay in all cases: DTP human tumour cell line panel, 48 h
A549 NSCLC = test system: A549 NSCLC
HT29 colon = test system: HT29 colon
OVCAR-5 ovarian = test system: OVCAR-5 ovarian
RPMI-8226 leukemia = test system: RPMI-8226 leukemia
SK-MEL-28 melanoma = test system: SK-MEL-28 melanoma
SN12C renal = test system: SN12C renal
SNB-19 CNS = test system: SNB-19 CNS
SNB-75 CNS = test system: SNB-75 CNS
SW-620 colon = test system: SW-620 colon
U251 CNS = test system: U251 CNS

SMILES	TGI (A549 NSCLC) [µM]	TGI (HT29 colon) [µM]	TGI (OVCAR-5 ovarian) [µM]	TGI (RPMI-8226 leukemia) [µM]	TGI (SK-MEL-28 melanoma) [µM]	TGI (SN12C renal) [µM]	TGI (SNB-19 CNS) [µM]	TGI (SNB-75 CNS) [µM]	TGI (SW-620 colon) [µM]	TGI (U251 CNS) [µM]	GI50 (A549 NSCLC) [µM]	GI50 (HT29 colon) [µM]	GI50 (OVCAR-5 ovarian) [µM]	GI50 (RPMI-8226 leukemia) [µM]	GI50 (SK-MEL-28 melanoma) [µM]	GI50 (SN12C renal) [µM]	GI50 (SNB-19 CNS) [µM]	GI50 (SNB-75 CNS) [µM]	GI50 (SW-620 colon) [µM]	GI50 (U251 CNS) [µM]
CN(C)CCCN1c2ccc(O)cc2Sc2ccc(Cl)cc21	28.6	14.7	30.8	21.9	24.7	23.1	27.6	21	39.6	21.6	–	–	–	–	–	–	–	–	–	–
C=C1[C@@H](O)C[C@H]2C(C)(C)C[C@H](Cl)C[C@]2(C)[C@H]1C[C@H](O)[C@H]1CC(=O)NC1=O	0.145	0.119	0.395	0.0805	0.127	0.108	0.241	0.706	4.94	0.108	0.0117	< 0.0105	0.0269	0.0207	0.0161	< 0.01	< 0.01	0.0287	0.0114	< 0.01
CNC12C3C4C1C1C2C3C41C(=O)N[C@H](C(=O)N(C)[C@H](C[C@@H](OC(C)=O)c1nc(C(=O)N[C@@H](Cc2ccccc2)C[C@H](C)C(=O)OC)cs1)C(C)C)C1CC1 (stereo partly drawn)	> 15	1.28	> 15	1.89	> 15	> 15	> 15	2.73	> 15	> 15	1.53	0.257	2.2	0.0705	2.13	0.612	0.679	0.129	0.21	0.587
CC(=O)Oc1ccccc1C(=O)NCCC[Se]C#N	3.6	11.2	6.91	6.04	4.82	12.4	2.95	4.92	–	2.95	1.84	3.51	2.78	2.41	1.89	3.2	1.57	1.88	3.47	1.6
CCOC(=O)Nc1ccc(C(=O)/C=C/c2ccccc2)cc1	> 100	> 100	90.5	22.5	> 100	> 100	> 100	> 100	> 100	30.4	30.1	10.1	28.9	3.76	59	24.4	26.4	31.6	19.2	12.6
COC(=O)C1=CO[C@@H](OC2OC(CO)C(O)C(O)C2O)[C@@H]2[C@H](C)[C@@H](O)[C@@H](O)[C@]12O (stereo partly drawn)	> 100	> 100	> 100	> 100	> 100	> 100	> 100	> 100	> 100	> 100	–	–	–	–	–	–	–	–	–	–
O=C1Nc2ccc(CN3CCOC3=O)cc2/C1=C/c1cc(CN2CCOCC2)c[nH]1	> 100	> 100	> 100	53.7	> 100	> 100	> 100	> 100	> 100	> 100	49.7	34.6	> 100	19.2	58	45.4	98.7	52.8	37.9	> 75.6
Cc1cccc(Cl)c1NC(=O)c1cccc([N+](=O)[O-])c1O	> 100	> 100	> 100	64.6	> 100	> 100	> 100	> 100	> 100	> 100	–	–	–	–	–	–	–	–	–	–
Cc1ccc(S(=O)(=O)NNC(C[N+](=O)[O-])c2ccccc2)cc1 (stereo not drawn)	> 100	3.99	> 100	> 100	–	> 100	30.4	41	> 100	60.5	–	–	–	–	–	–	–	–	–	–
CNC(C)[C@H]1CCC2C3CCC4C[C@@H](N(C)C(=O)c5ccccc5)CC[C@]4(C)C3CC[C@@]21C (stereo partly drawn)	7.29	1.23	14.8	3.3	2.9	8.34	8.36	5.12	2.9	5.4	2.31	0.291	2.4	0.426	1.36	1.82	2.88	1.97	0.854	1.25
CCCC(=O)O[C@]1(C)CC[C@@H]2[C@H]3[C@@H]1[C@@H]1C/C(C)=C\CC[C@](C)(OC(=O)[C@@H]2C)[C@H]3O1	> 100	> 100	> 100	37.6	> 100	> 100	> 100	> 100	> 100	> 100	40.1	32.1	38.2	15.9	78.5	47.9	> 100	> 100	40.6	41.8
CCOc1ccc(NC(=O)c2cc3ccccc3cc2O)cc1	> 100	> 100	> 100	> 100	> 100	> 100	> 100	> 100	> 100	> 100	> 100	> 100	> 100	38.9	> 100	> 100	41.2	34.9	> 100	45.9
C[CH2][Ge]([CH2]C)([CH2]C)[O]C(=O)C([O][Ge]([CH2]C)([CH2]C)[CH2]C)c1ccccc1 (stereo not drawn)	56.4	46.4	74.1	> 100	> 100	82.8	96.1	62.7	42.2	41.4	12.7	16.4	16.3	11.2	24.6	18.2	32.5	18.3	18.9	17.2
